Values after ≈ are worked out from the molar mass of the structure shown.
Assays:
[1] = Acute toxicity in mouse administered as single po dose; format: organism-based; details: in vivo
[2] = system: Mycobacterium tuberculosis; experiment: Antimycobacterial activity against Mycobacterium tuberculosis H37Rv after 10 days by microbroth dilution method; format: functional; details: 240 h
Mycobacterium avium = experiment: Antimycobacterial activity against Mycobacterium avium after 10 days by microbroth dilution method; format: functional; details: 240 h
Mycolicibacter terrae = experiment: Antimycobacterial activity against Mycobacterium terrae after 10 days by microbroth dilution method; format: functional; details: 240 h
[3] = Acute toxicity in mouse administered as single ip dose; format: organism-based; details: in vivo

| SMILES | LD50 [1] | MIC [2] | MIC (Mycobacterium avium) | MIC (Mycolicibacter terrae) | LD50 [3] |
| --- | --- | --- | --- | --- | --- |
| Brc1cncnc1-c1cccs1 | 315 mg/kg | 0.7 µg/mL (≈ 2.9 µM) | 0.3 µg/mL (≈ 1.24 µM) | 0.3 µg/mL (≈ 1.24 µM) | – |
| Brc1cncnc1-c1ccc(-c2cccs2)s1 | – | – | – | 0.7 µg/mL (≈ 2.17 µM) | – |
| Brc1cncnc1-c1ccc(-c2ccccc2)s1 | – | 6.25 µg/mL (≈ 19.7 µM) | – | – | – |
| Brc1cncnc1-c1ccco1 | 405 mg/kg | 1.5 µg/mL (≈ 6.67 µM) | 0.7 µg/mL (≈ 3.11 µM) | 0.7 µg/mL (≈ 3.11 µM) | – |
| C(=C\c1cncnc1-c1cccs1)/c1ccccc1 | – | 12.5 µg/mL (≈ 47.3 µM) | – | – | – |
| C(=C\c1cncnc1-c1ccc(-c2ccccc2)s1)/c1ccccc1 | – | 12.5 µg/mL (≈ 36.7 µM) | – | – | – |
| C(=C\c1cncnc1-c1ccc(-c2cccs2)s1)/c1ccccc1 | – | – | – | 0.7 µg/mL (≈ 2.02 µM) | – |
| C(=C\c1cncnc1-c1ccco1)/c1ccccc1 | – | 6.25 µg/mL (≈ 25.2 µM) | – | – | – |
| C(=C\c1cncnc1-c1cccs1)/c1ccc(-c2ccccc2)cc1 | – | 12.5 µg/mL (≈ 36.7 µM) | – | – | – |
| C(=C\c1cncnc1-c1ccc(-c2ccccc2)s1)/c1ccc(-c2ccccc2)cc1 | – | 12.5 µg/mL (≈ 30 µM) | – | – | – |
| C(=C\c1cncnc1-c1ccc(-c2cccs2)s1)/c1ccc(-c2ccccc2)cc1 | 78 mg/kg | 1.5 µg/mL (≈ 3.55 µM) | 0.7 µg/mL (≈ 1.66 µM) | 0.7 µg/mL (≈ 1.66 µM) | – |
| C(=C\c1cncnc1-c1ccco1)/c1ccc(-c2ccccc2)cc1 | – | 12.5 µg/mL (≈ 38.5 µM) | – | – | – |
| c1csc(-c2ccncn2)c1 | – | 12.5 µg/mL (≈ 77.1 µM) | – | – | – |
| c1ccc(-c2ccc(-c3ccncn3)s2)cc1 | – | 12.5 µg/mL (≈ 52.5 µM) | – | – | – |
| c1csc(-c2ccc(-c3ccncn3)s2)c1 | – | 12.5 µg/mL (≈ 51.2 µM) | – | – | – |
| NNC(=O)c1ccncc1 [ISONIAZID] | 133 mg/kg | 0.1 µg/mL (≈ 0.729 µM) | 0.1 µg/mL (≈ 0.729 µM) | 0.1 µg/mL (≈ 0.729 µM) | 151 mg/kg |
| NC(=O)c1cnccn1 [PYRAZINAMIDE] | – | 12.5 µg/mL (≈ 102 µM) | – | – | 1680 mg/kg |

— ChEMBL document CHEMBL3297728, “Synthesis and antituberculosis activity of novel 5-styryl-4-(hetero)aryl-pyrimidines via combination of the Pd-catalyzed Suzuki cross-coupling and S(N)(H) reactions” (Bioorg Med Chem Lett, 2014)
